Measured values: patent US9649313B2, “Use of ITK inhibitors for the treatment of cancer” (The University of North Carolina at Chapel Hill, priority 2012, dated 2017)

Columns and labels:
[1] = tested on: VMM 39 (ITKHI) xenograft tumors; assay: melanoma xenograft mouse model; type: in vivo, nude mice; conditions: VMM 39 xenograft; 15 mg per kg in food
Protocol: FIG. 6A-6F. Effects of BI 10N inhibitor on growth of melanoma xenografts in vivo. FIG. 6A-6C) Cell lines RPMI 8322 (ITKHI), VMM 39 (ITKHI), and A375 (ITKINT) were grown as described previously, suspended in matrigel and injected into the flanks of nude mice as described in the Materials and Methods section. The mice received either BI 10N at a concentration of 15 mpk or no treatment. Mice were then followed to assess the effect of the treatments on tumor progression. FIG. 6D-6F) Effect of BI 10N (15mpk) on tumor growth (mean and standard error of mean) in A375, RPMI 8322, and VMM 39 melanoma xenografts. […] Samples sizes are indicated in parentheses.
Nude athymic animals were acquired through the UNC Animal Studies Core and are similar to Jackson Labs (strain 000819). Mice were aged to 10 weeks and inoculated in the hind flank with 500K cells suspended in a 50/50 solution of Hank's Solution plus 2% FBS and matrigel (BD cat#356234). Once weekly caliper measurements of the length and width of the tumors were recorded; volume was then calculated using the formula ((L^2)×W)/2. Treatment began when a tumor reached an approximate size of 60 mm^3. Mice received compounds orally via admixture with standard rodent diet (Research Diets, Inc; New Brunswick, N.J.) or the same diet for non-treated mice as per MP1U (mouse phase I unit) protocol (Roberts et al., 2012 Clin Cancer Res 18(19):5290-5303). Tissues were cut in half and either flash frozen and then stored at −80 or formalin-fixed/paraffin embedded.

[2] = tested on: primary melanoma in the PTEN/BRAF GEMM; assay: PTEN/BRAF GEMM primary melanoma model; type: in vivo, mice
Description: FIG. 7A-7B Effects of BI 10N inhibitor on growth of primary melanoma in the PTEN/BRAF GEMM. A primary melanoma tumor from the PTEN/BRAF mouse GEMM untreated with inhibitors stained with acid fast red for ITK using ITK antibody (Abeam cat#ab32113) (data not shown). A PTEN/BRAF mouse model was used for these in vivo studies. The mice were painted with 4HT (4-hydroxy-tamoxifen) at the base of their tails and within about 4 weeks, 4 mm×4 mm melanomas were typically present in each mouse. The animals were then divided into treatment or no treatment groups. FIG. 7A) Animals were treated as described in panel B, then placed on BI 10N BI 10N at 15 MPK or not treated. Mice were followed for 7 weeks and their tumors were measured once a week to assess tumor volume as described in the Materials and Methods. FIG. 7B) Effect of BI 10N on tumor growth (mean and standard error of mean) in the PTEN/BRAF GEMM. […] The effects of AZD6244 and PLX4032 on tumor growth are also shown. Samples sizes are indicated in parentheses.
All animal studies were approved by UNC-CH Institute for Animal Care and Use Committee prior to study start. PTEN/BRAF mice were bred in house, and tumors were induced with 1 ul of 20 mM Tamoxafen at 4 weeks near the base of the tail as previously described (Dankort et al., 2009 Nat Genet 41(5): 544-52). […]

[3] = tested on: PD-L expression in the melanoma cells; assay: PD-L expression in melanoma cells; type: cell-based
Description: In addition, we report a correlation between PD-L and ITK protein expression and also found a significant correlation between activated Akt and PD-L protein levels (data not shown). […] These observations are consistent with PI3K regulating PD-L expression, Akt or Erk activation and ITK protein levels (Davies, 2012; Jiang and Liu 2008 Biochim Biophys Acta 1784, 150-158; Parsa et al., 2007 Nat Med 13, 84-88)

Question: `CC(C)C(C)CNCc1ccc2c(c1)[nH]/c(=N\C(=O)c1ccc(C3=CN=NC3)s1)n2CC(C)(C)O` (stereo not shown) [BI 10N] was tested. Which tumor growth [1] did it give?
Answer: significantly slowed

Question: What about the “tumor growth compared with AZD6244 and PLX4032” value ([2]; PTEN/BRAF GEMM, FIG. 7B) of the same molecule?
Answer: performs better in vivo than MEK inhibitor AZD6244 (selumentinib) and V600E BRAF inhibitor PLX4032 (vemurafenib)

Question: What about the progression of tumors ([2]; PTEN/BRAF mice, 15 mg per kg, compared to the no treatment group) of the same molecule?
Answer: profoundly retarded the progression of tumors

Question: What about the “expression of PD-L” value [3] of the same molecule?
Answer: did not change
